This note sets out measurements from US20140135310A1, “SULPHONAMIDE DERIVATIVES OF ALICYCLIC AMINES FOR THE TREATMENT OF CENTRAL NERVOUS SYSTEM DISEASES” (Adamed Sp. z o.o., priority 2011, published 2014).

For data set [1], the target named is T1, hERG potassium channels (KCNH2 gene, expressed in CHO cells) (Homo sapiens, UniProt Q12809).
T1 construct: expressed in transfected cells; host or cells: CHO cells
The data set can be described thus: Ability to block hERG potassium channel (electrophysiology, IonWorks Quattro). In kind it is cell-based. The conditions noted are these: % block of hERG current, test compound 1×10^−5 M. The procedure:
Moreover, the ability of the compounds of the invention to block potassium channel hERG was tested.
Ability to block hERG potassium channels was determined using the electrophysiological method and cloned hERG potassium channels (KCNH2 gene, expressed in CHO cells) as biological material. The effects were evaluated using IonWorks™ Quattro system (MDS-AT).
hERG current was elicited using a pulse pattern with fixed amplitudes (conditioning pre-pulse: −80 mV for 25 ms; test pulse: +40 mV for 80 ms) from a holding potential of 0 mV. hERG current was measured as a difference between the peak current at 1 ms after the test step to +40 mV and the steady-state current at the end of the step to +40 mV.
Data acquisition and analyses was performed using the IonWorks Quattro™ system operation software (version 2.0.2; Molecular Devices Corporation, Union City, Calif.). Data were corrected for leak current.
The hERG block was calculated as:
% Block=(1−ITA/IControl)×100%,
where IControl and ITA were the currents elicited by the test pulse in control and in the presence of a test article, respectively.
Concentration-response data for the blocks were fit to an equation of the following form:
% Block=% VC+{(% PC−% VC)−(% PC−% VC)/[1+([Test]/IC50)N]},

Data set [2] relates to dizocilpine-induced locomotor hyperactivity. The data set can be described thus: Dizocilpine (MK-801)-induced locomotor hyperactivity in mice. The conditions noted are these: reversal of dizocilpine (MK-801)-induced hyperlocomotion, male CD-1 mice, i.p., 30 minutes before the experiment. In kind it is in vivo. The procedure:
Potential antipsychotic activity was tested for the representative compounds in mouse model of psychosis, involving the induction of locomotor hyperactivity by administering psychotomimetic substance—dizocilpine. The ability of a test compound to remove this effect is a measure of potential antipsychotic activity.
Male CD-1 mice were group-housed for 2-3 day period in polycarbonate Makrolon type 3 cages (dimensions 26.5×15×42 cm) in an environmentally controlled, experimental room (ambient temperature 22-20° C.; relative humidity 50-60%; 12:12 light:dark cycle, lights on at 8:00), in groups of 15. Standard laboratory food (Ssniff M-Z) and filtered water were freely available. On the day before experiments the equipment produced “white noise” was turned on for 30 minutes and mice were weighted exact to 1 g. Animals were assigned randomly to treatment groups. All the experiments were performed by two observers unaware of the treatment applied between 9:00 and 14:00 on separate groups of animals. Mice were used only once and were killed immediately after the experiment.
The locomotor activity was recorded with an Opto M3 multi-channel activity monitor (MuttiDevice Software v.1.3, Columbus Instruments). The mice were individually placed in plastic cages (22×12×13 cm) for 30 minutes habituation period, and then the crossings of each channel (ambulation) were counted during 1 h with data recording every 5 minutes. The cages were cleaned up with 70% ethanol after examining each mouse. Drugs were administered to 10 mice per treatment group. Test compounds were given 30 minutes before the experiment. Dizocilpine was administered 30 minutes before the test.
Test compounds were prepared as a suspension in 1% aqueous solution of Tween 80, and dizocilpine was dissolved in distilled water immediately before administration. An injection volume of 10 ml/kg was used and all compounds were administered intraperitoneally (i.p.).

The target of data set [3] is T2, 5-HT reuptake (rat brain synaptosomes) (Rattus norvegicus, UniProt P31652).
T2 construct: measuring [^3H]5-HT incorporation into rat brain synaptosomes; from tissue; host or cells: rat brain synaptosomes
T2 sequence (P31652 whole entry): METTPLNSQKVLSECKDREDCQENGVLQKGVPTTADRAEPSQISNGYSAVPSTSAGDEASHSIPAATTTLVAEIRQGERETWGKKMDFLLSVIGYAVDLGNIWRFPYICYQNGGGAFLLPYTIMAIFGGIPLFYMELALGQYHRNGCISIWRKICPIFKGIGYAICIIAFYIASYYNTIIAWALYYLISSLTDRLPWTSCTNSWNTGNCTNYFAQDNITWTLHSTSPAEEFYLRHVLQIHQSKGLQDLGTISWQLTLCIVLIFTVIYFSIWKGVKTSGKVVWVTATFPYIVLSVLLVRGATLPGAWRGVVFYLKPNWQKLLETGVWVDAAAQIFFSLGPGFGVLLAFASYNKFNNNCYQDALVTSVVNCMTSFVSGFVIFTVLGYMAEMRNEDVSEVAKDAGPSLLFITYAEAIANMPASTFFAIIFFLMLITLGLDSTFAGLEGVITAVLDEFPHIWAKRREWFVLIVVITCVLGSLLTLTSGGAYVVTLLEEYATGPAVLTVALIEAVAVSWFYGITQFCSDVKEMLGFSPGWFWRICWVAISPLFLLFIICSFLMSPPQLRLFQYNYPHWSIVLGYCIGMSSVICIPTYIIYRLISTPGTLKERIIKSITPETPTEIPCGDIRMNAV
The data set can be described thus: 5-HT reuptake, [3H]5-HT incorporation into rat brain synaptosomes. In kind it is biochemical. Particulars: 15 min/37° C., read-out: SERT IC50. The procedure: 5-HT reuptake was tested according to Perovic, S. and Muller, W.E.G. (1995) Arzneim-Forsch. Drug Res., 45: 1145-1148 by measuring [^3H]5-HT incorporation into rat brain synaptosomes. Assay conditions are as follows:
Tracer: [^3H]5-HT (0.2 μCi/ml)
Incubation: 15 min/37° C.

T1 sequence (Q12809 whole entry): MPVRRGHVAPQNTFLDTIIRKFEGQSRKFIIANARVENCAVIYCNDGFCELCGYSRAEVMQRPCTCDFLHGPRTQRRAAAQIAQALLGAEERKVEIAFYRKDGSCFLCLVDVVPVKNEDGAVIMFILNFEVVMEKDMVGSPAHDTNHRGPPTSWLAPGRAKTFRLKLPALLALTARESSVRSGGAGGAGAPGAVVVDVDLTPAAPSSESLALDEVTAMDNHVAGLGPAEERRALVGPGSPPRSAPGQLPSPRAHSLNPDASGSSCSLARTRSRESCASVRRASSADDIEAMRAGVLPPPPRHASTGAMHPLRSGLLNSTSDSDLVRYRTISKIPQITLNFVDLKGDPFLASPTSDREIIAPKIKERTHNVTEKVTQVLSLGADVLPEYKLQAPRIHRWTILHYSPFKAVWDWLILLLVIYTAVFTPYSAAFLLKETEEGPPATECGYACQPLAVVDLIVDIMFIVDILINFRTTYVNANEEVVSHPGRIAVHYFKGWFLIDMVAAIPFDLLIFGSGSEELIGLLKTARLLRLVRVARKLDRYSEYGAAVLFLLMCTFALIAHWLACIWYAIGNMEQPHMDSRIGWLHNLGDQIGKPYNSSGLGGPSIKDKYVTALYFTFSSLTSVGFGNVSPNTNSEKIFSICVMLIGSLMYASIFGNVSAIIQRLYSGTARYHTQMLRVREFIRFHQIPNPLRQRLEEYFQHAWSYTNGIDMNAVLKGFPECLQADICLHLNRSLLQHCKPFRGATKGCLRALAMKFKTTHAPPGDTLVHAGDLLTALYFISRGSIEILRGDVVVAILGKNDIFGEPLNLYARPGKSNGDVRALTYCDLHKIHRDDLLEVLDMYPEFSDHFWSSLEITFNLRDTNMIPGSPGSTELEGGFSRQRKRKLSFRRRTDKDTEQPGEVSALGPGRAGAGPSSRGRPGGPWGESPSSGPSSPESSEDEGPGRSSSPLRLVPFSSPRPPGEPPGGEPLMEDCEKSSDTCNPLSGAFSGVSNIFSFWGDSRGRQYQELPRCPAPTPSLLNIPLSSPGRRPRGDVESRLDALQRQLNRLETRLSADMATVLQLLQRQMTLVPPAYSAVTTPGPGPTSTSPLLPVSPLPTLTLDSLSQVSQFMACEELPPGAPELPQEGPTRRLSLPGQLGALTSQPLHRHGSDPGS

Consider `O=S(=O)(NC1CCN(CCCc2noc3cc(F)ccc23)C1)c1csc2ccccc12` (stereo not shown) [Compound 26, N-[1-[3-(6-Fluoro-1,2-benzoxazol-3-yl)propyl]pyrrolidin-3-yl]-benzothiophene-3-sulphonamide], for which the “hERG [%]” value in data set [1] is recorded as 6.1%.

Consider `O=S(=O)(NC1CCN(CCCc2noc3cc(F)ccc23)C1)c1ccc2ccccc2c1` (stereo not shown) [Compound 21, N-[1-[3-(6-Fluoro-1,2-benzoxazol-3-yl)propyl]pyrrolidin-3-yl]naphthalene-2-sulphonamide], for which the “hERG [%]” value in data set [1] turned out to be 3.3%. For the same compound, the “MED* [mg/kg] (minimum effective dose)” value in data set [2] amounted to 10 mg/kg.

Take `O=S(=O)(NC1CCN(CCCc2noc3cc(F)ccc23)C1)c1cc2ccccc2s1` (stereo not shown) [Compound 25, N-[1-[3-(6-Fluoro-1,2-benzoxazol-3-yl)propyl]pyrrolidin-3-yl]-benzothiophene-2-sulphonamide]: the “hERG [%]” value in data set [1] turned out to be 2.9%. Further, the “MED* [mg/kg] (minimum effective dose)” value in data set [2] came to 5 mg/kg.

For the compound `O=S(=O)(NC1CCN(CCCc2c[nH]c3ccc(Cl)cc23)C1)c1cccc(Cl)c1` (stereo not shown) [Compound 84, 3-Chloro-N-[1-[3-(5-chloro-1H-indol-3-yl)propyl]pyrrolidin-3-yl]benzenesulphonamide], the IC50 in data set [3] worked out at 64 nM.

For the compound `O=S(=O)(N[C@@H]1CCN(CCCc2noc3cc(F)ccc23)C1)c1cc2ccccc2s1` [Compound 196, N-[(3R)-1-[3-(6-Fluoro-1,2-benzoxazol-3-yl)propyl]pyrrolidin-3-yl]benzo-thiophene-2-sulphonamide], the “MED* [mg/kg] (minimum effective dose)” value in data set [2] was 2.5 mg/kg.

With `O=S(=O)(NC1CCN(CCCc2noc3cc(F)ccc23)CC1)c1cccc2ccccc12` [Compound 34, N-[1-[3-(6-Fluoro-1,2-benzoxazol-3-yl)propyl]-4-piperidine]-naphthalene-1-sulphonamide], the “hERG [%]” value in data set [1] is given as −1.1%.

In the case of `O=S(=O)(NC1CCN(CCCc2c[nH]c3ccc(F)cc23)C1)c1ccc2ccccc2c1` (stereo not shown) [Compound 80, N-[1-[3-(5-Fluoro-1H-indol-3-yl)propyl]pyrrolidin-3-yl]naphthalene-2-sulphonamide], in data set [3], the IC50 worked out at 2.1 nM.

With `O=S(=O)(NC1CN(CCOc2cccc3c2OCCO3)C1)c1cccc2ccccc12` [Compound 94, N-[1-[2-(2,3-Dihydro-1,4-benzodioxan-8-yloxy)ethyl]azetidin-3-yl]-naphthalene-1-sulphonamide], the “hERG [%]” value in data set [1] amounted to 4.8%.
